Source: PubChem BioAssay AID248 (DTP/NCI, 2004)
Inconclusive results and toxic doses are left out. Cut-off read from the data, not from the text of the source: active = T/C of 150% or more; inactive = T/C below 125%.

Test system: L1210 leukemia ip in BDF1 mice, survival T/C
Assay: NCI In Vivo Anticancer Drug Screen. Data for tumor model L1210 Leukemia (intraperitoneal) in B6D2F1 (BDF1) mice
Conditions: endpoint: mean survival time, higher = longer survival
Outline: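 Mice bearing the transplanted tumor received compound or vehicle. Survival of the treated group was divided by that of the vehicle-treated control group to give the ratio.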

[1] = dose: 50.0 mg/kg/injection, schedule: Q01DX009 (ip), vehicle: saline with Tween-80
[2] = dose: 100.0 mg/kg/injection, schedule: Q01DX009 (ip), vehicle: saline with Tween-80
[3] = dose: 100.0 mg/kg/injection, schedule: Q04DX003 (ip), vehicle: saline
[4] = dose: 200.0 mg/kg/injection, schedule: Q01DX009 (ip), vehicle: saline with Tween-80
[5] = dose: 200.0 mg/kg/injection, schedule: Q04DX003 (ip), vehicle: saline
[6] = dose: 100.0 mg/kg/injection, schedule: Q01DX001 (ip), vehicle: carboxymethylcellulose (CMC)
[7] = dose: 200.0 mg/kg/injection, schedule: Q01DX001 (ip), vehicle: carboxymethylcellulose (CMC)
[8] = dose: 400.0 mg/kg/injection, schedule: Q01DX001 (ip), vehicle: carboxymethylcellulose (CMC)
[9] = dose: 400.0 mg/kg/injection, schedule: Q04DX003 (ip), vehicle: saline
[10] = dose: 100.0 mg/kg/injection, schedule: Q01DX009 (ip), vehicle: Klucel (hydroxypropylcellulose) (HPC)
[11] = dose: 200.0 mg/kg/injection, schedule: Q01DX009 (ip), vehicle: Klucel (hydroxypropylcellulose) (HPC)
[12] = dose: 400.0 mg/kg/injection, schedule: Q01DX009 (ip), vehicle: Klucel (hydroxypropylcellulose) (HPC)
[13] = dose: 100.0 mg/kg/injection, schedule: Q04DX003 (ip), vehicle: Klucel (hydroxypropylcellulose) (HPC)
[14] = dose: 200.0 mg/kg/injection, schedule: Q04DX003 (ip), vehicle: Klucel (hydroxypropylcellulose) (HPC)
[15] = dose: 400.0 mg/kg/injection, schedule: Q04DX003 (ip), vehicle: Klucel (hydroxypropylcellulose) (HPC)
[16] = dose: 100.0 mg/kg/injection, schedule: Q01DX001 (ip), vehicle: saline
[17] = dose: 200.0 mg/kg/injection, schedule: Q01DX001 (ip), vehicle: saline
[18] = dose: 400.0 mg/kg/injection, schedule: Q01DX001 (ip), vehicle: saline
[19] = dose: 50.0 mg/kg/injection, schedule: Q01DX001 (ip), vehicle: saline
[20] = dose: 400.0 mg/kg/injection, schedule: Q01DX009 (ip), vehicle: saline with Tween-80

Measured: T/C

CC(=O)C(C(C)=O)C1C=CC=CC=C1
inactive: [1] 93 % of control | [2] 104 % of control | [3] 95 % of control | [4] 86 % of control | [5] 122 % of control

CC(=O)CCNc1ccc(O)c2c1C(=O)c1ccccc1C2=O
inactive: [6] 96 % of control | [7] 89 % of control | [8] 94 % of control

Cc1nc(=O)ccn1Cc1ccccc1
inactive: [3] 101 % of control | [5] 101 % of control | [9] 96 % of control

Cc1ccc(N2C(=O)CC(N3CCCCC3)C2=O)cc1 (configuration not stated)
inactive: [10] 102 % of control | [11] 96 % of control | [12] 91 % of control

N#CC(C#N)=CN1CCCCCC1
inactive: dose: 6.25 mg/kg/injection, schedule: Q01DX009 (ip), vehicle: saline with Tween-80 93 % of control | dose: 6.25 mg/kg/injection, schedule: Q04DX003 (ip), vehicle: saline with Tween-80 96 % of control | dose: 12.5 mg/kg/injection, schedule: Q01DX009 (ip), vehicle: saline with Tween-80 94 % of control | dose: 12.5 mg/kg/injection, schedule: Q04DX003 (ip), vehicle: saline with Tween-80 92 % of control | dose: 25.0 mg/kg/injection, schedule: Q01DX009 (ip), vehicle: saline with Tween-80 89 % of control | dose: 25.0 mg/kg/injection, schedule: Q04DX003 (ip), vehicle: saline with Tween-80 94 % of control

Cc1cc(OC(=O)Nc2ccc(Cl)c(Cl)c2)ccc1Cl
inactive: [10] 102 % of control | [13] 96 % of control | [11] 98 % of control | [14] 104 % of control | [12] 95 % of control | [15] 101 % of control

O=C1Nc2ccccc2C1=Nc1ccc(S(=O)(=O)Nc2nccs2)cc1
inactive: dose: 75.0 mg/kg/injection, schedule: Q01DX001 (ip), vehicle: saline 89 % of control | dose: 150.0 mg/kg/injection, schedule: Q01DX001 (ip), vehicle: saline 86 % of control | dose: 300.0 mg/kg/injection, schedule: Q01DX001 (ip), vehicle: saline 86 % of control

Cn1c(=O)c2c(ncn2CCOC(=O)C(C)(C)Oc2ccc(Cl)cc2)n(C)c1=O
inactive: [10] 92 % of control | [13] 90 % of control | [11] 105 % of control | [14] 96 % of control | [15] 93 % of control

N#Cc1ccc(OCCCCCOc2ccc([N+](=O)[O-])cc2)cc1
inactive: dose: 75.0 mg/kg/injection, schedule: Q01DX009 (ip), vehicle: Klucel (hydroxypropylcellulose) (HPC) 101 % of control | dose: 150.0 mg/kg/injection, schedule: Q01DX009 (ip), vehicle: Klucel (hydroxypropylcellulose) (HPC) 97 % of control | dose: 300.0 mg/kg/injection, schedule: Q01DX009 (ip), vehicle: Klucel (hydroxypropylcellulose) (HPC) 100 % of control

Nc1ncnc2nc(-c3cccc(OCCCOc4ccccc4)c3)[nH]c12
inactive: dose: 75.0 mg/kg/injection, schedule: Q01DX001 (ip), vehicle: gum acacia 95 % of control | dose: 150.0 mg/kg/injection, schedule: Q01DX001 (ip), vehicle: gum acacia 93 % of control | dose: 300.0 mg/kg/injection, schedule: Q01DX001 (ip), vehicle: gum acacia 91 % of control

CC1(C)N=C(N)N=C(N)N1c1ccc(CCCCc2ccc(Cl)cc2Cl)cc1
inactive: dose: 5.0 mg/kg/injection, schedule: Q01DX001 (ip), vehicle: saline 88 % of control | dose: 10.0 mg/kg/injection, schedule: Q01DX001 (ip), vehicle: saline 92 % of control | dose: 20.0 mg/kg/injection, schedule: Q01DX001 (ip), vehicle: saline 103 % of control

COc1ccc(CC(C(=O)O)c2ccccc2C(=O)O)cc1OC (configuration not stated)
inactive: [16] 101 % of control | [17] 97 % of control | [18] 97 % of control

OCC1OC(n2cnc3c(NO)ncnc32)CC1O (configuration not stated)
inactive: dose: 50.0 mg/kg/injection, schedule: Q01DX001 (ip), vehicle: carboxymethylcellulose (CMC) 102 % of control | [6] 109 % of control | [7] 109 % of control | [8] 109 % of control

O=C1c2cc(Br)ccc2NC1(c1c[nH]c2ccc(Br)cc12)c1c[nH]c2ccc(Br)cc12
inactive: [19] 100 % of control | [16] 96 % of control | [17] 93 % of control | [18] 93 % of control

ClCCC[S][Pb]([c]1ccccc1)([c]1ccccc1)[c]1ccccc1
inactive: dose: 25.0 mg/kg/injection, schedule: Q04DX002 (sc), vehicle: olive oil, sesame oil, peanut oil 100 % of control | dose: 50.0 mg/kg/injection, schedule: Q04DX002 (sc), vehicle: olive oil, sesame oil, peanut oil 116 % of control

CC(=O)CC(=O)NCCNCCNC(=O)CC(C)=O
inactive: dose: 100.0 mg/kg/injection, schedule: Q01DX009 (ip), vehicle: saline 88 % of control | [3] 91 % of control | dose: 200.0 mg/kg/injection, schedule: Q01DX009 (ip), vehicle: saline 95 % of control | [5] 98 % of control | dose: 400.0 mg/kg/injection, schedule: Q01DX009 (ip), vehicle: saline 97 % of control | [9] 100 % of control

Cc1nc(N)c(=O)[nH]c1C
inactive: dose: 100.0 mg/kg/injection, schedule: Q01DX001 (ip), vehicle: Klucel (hydroxypropylcellulose) (HPC) 104 % of control | [2] 90 % of control | dose: 100.0 mg/kg/injection, schedule: Q04DX003 (ip), vehicle: saline with Tween-80 100 % of control | dose: 200.0 mg/kg/injection, schedule: Q01DX001 (ip), vehicle: Klucel (hydroxypropylcellulose) (HPC) 97 % of control | [4] 112 % of control | dose: 200.0 mg/kg/injection, schedule: Q04DX003 (ip), vehicle: saline with Tween-80 105 % of control | dose: 400.0 mg/kg/injection, schedule: Q01DX001 (ip), vehicle: Klucel (hydroxypropylcellulose) (HPC) 97 % of control | [20] 104 % of control | dose: 400.0 mg/kg/injection, schedule: Q04DX003 (ip), vehicle: saline with Tween-80 114 % of control

COc1cc2nc3cc(Nc4ccccc4)c(=O)c(C(C)=O)c-3n(CCN3CCOCC3)c2cc1OC
inactive: dose: 100.0 mg/kg/injection, schedule: Q04DX002 (ip), vehicle: Klucel (hydroxypropylcellulose) (HPC) 90 % of control | dose: 200.0 mg/kg/injection, schedule: Q04DX002 (ip), vehicle: Klucel (hydroxypropylcellulose) (HPC) 87 % of control | dose: 400.0 mg/kg/injection, schedule: Q04DX002 (ip), vehicle: Klucel (hydroxypropylcellulose) (HPC) 107 % of control

Nc1ncnc2c1ncn2C1CCC(CO)O1 (configuration not stated)
inactive: [16] 103 % of control | [17] 115 % of control | [18] 105 % of control

COC(=O)/C=C\C(=O)O
inactive: [3] 88 % of control | [5] 88 % of control

CN(C)N=Nc1ccc(Cl)cc1
inactive: dose: 37.5 mg/kg/injection, schedule: Q04DX003 (ip), vehicle: saline with Tween-80 96 % of control | dose: 50.0 mg/kg/injection, schedule: Q01DX001 (ip), vehicle: saline with Tween-80 106 % of control | [1] 86 % of control | dose: 75.0 mg/kg/injection, schedule: Q04DX003 (ip), vehicle: saline with Tween-80 97 % of control | dose: 100.0 mg/kg/injection, schedule: Q01DX001 (ip), vehicle: saline with Tween-80 104 % of control | [16] 103 % of control | [2] 87 % of control | dose: 150.0 mg/kg/injection, schedule: Q04DX003 (ip), vehicle: saline with Tween-80 104 % of control | dose: 200.0 mg/kg/injection, schedule: Q01DX001 (ip), vehicle: saline with Tween-80 113 % of control | [17] 107 % of control | [4] 90 % of control | dose: 300.0 mg/kg/injection, schedule: Q04DX003 (ip), vehicle: saline with Tween-80 108 % of control | [18] 97 % of control | [20] 91 % of control

O=C(OCc1cnccn1)c1cnccn1
inactive: [16] 107 % of control | [17] 94 % of control | [18] 100 % of control

NCCOc1ccccn1
inactive: dose: 100.0 mg/kg/injection, schedule: Q04DX002 (ip), vehicle: saline 111 % of control | dose: 200.0 mg/kg/injection, schedule: Q04DX002 (ip), vehicle: saline 101 % of control | dose: 400.0 mg/kg/injection, schedule: Q04DX002 (ip), vehicle: saline 101 % of control

CCC(=O)N(CC)CC
inactive: [19] 102 % of control | [16] 93 % of control | [18] 93 % of control
